From patent US9034863B2, “Compositions and methods for inhibiting entry of a hepatic virus” (The Board of Trustees of the University of Illinois, priority 2008, dated 2015)

Assays:
Dengue virus (DNV) = experiment: Dengue virus plaque formation; type: cell-based; conditions: 12.5 or 25 μM
Experimental: To ensure that the inhibition observed was not due to ezetimibe-induced changes in cell proliferation or cytotoxicity, cellular ATP was measured as a read-out of Huh7 cell viability and proliferation and cellular toxicity by adenylate kinase release following treatment with increasing doses of ezetimibe. […] Furthermore, to test the specificity of the observed HCV inhibition, the effect of ezetimibe on entry of another flavivirus, Dengue virus (DNV), was assessed.

HCV [1] = experiment: Chronic HCV infection treated with IFN-β and ezetimibe, weekly RT-qPCR for 8 weeks; type: cell-based, Hepatitis C virus (HCV); conditions: alone, during 8 weeks
Text: Intracellular RNA was collected from triplicate wells weekly for 8 weeks post-treatment and HCV RNA was quantified by RT-qPCR.

HCVcc^G451R = experiment: Infection of Huh7 cells with SR-B1-independent HCVcc G451R, intracellular HCV RNA; type: cell-based, Hepatitis C virus (HCV)
Experimental: Studies have shown that a G451R mutation in the viral envelope glycoprotein (E2) results in HCV virions of […] density and faster infection kinetics (thong, et al. (2006) J. Virol. 80:11082-11093). […] Thus, if ezetimibe was blocking HCV entry via an SR-B1 mediated mechanism, it would be expected that the mutant G451R virus would be less susceptible to the effects of ezetimibe. As a result, experiments were performed to assess the antiviral efficacy of ezetimibe against the SR-B1-independent HCVcc^G451R virus. Monolayers of Huh7 cells were inoculated with either wild-type HCVcc^JFH-1 or HCVcc^G451R at an MOI of 0.01 FFU/cell for 12 hours. Ezetimibe treatment at concentrations of 15 or 30 μM was initiated (and then continued) either 6 hours prior to infection, during the 12 hour incubation of the virus on the cells, or immediately following the 12 hour viral inoculation period. Ezetimibe at a concentration of 30 μM inhibited HCVcc^JFH-1 infection approximately 10-fold at 48 hours post-infection.

HCV [2] = experiment: Prevention of HCV infection in mice with chimeric human livers; type: in vivo; conditions: 10 mg/kg/day oral gavage from ~7 days prior to infection
Text: Alternatively, severe combined immunodeficient (SCID)/urokinase plasminogen activator (uPA) mice can be used. Mice are transplanted with primary human hepatocytes according to conventional methods (Azuma, et al. (2007) Nat. Biotechnol. 25:903-910; Bissig, et al. (2007) Proc. Natl. Acad. Sci. USA 104:20507-20511) and monitored for two months post-transplantation to assess repopulation efficiency by measuring human albumin serum levels. Using these models, mice can be assessed for the prevention of HCV infection or the inhibition of an already established infection.
Mice are injected with HCV positive human serum (of any HCV genotype) and HCV RNA serum levels are quantified daily and/or weekly to assess the efficacy with which the treatments reduces the amplification of HCV RNA levels. Evidence that ezetimibe reduces the amplification HCV levels in vivo, as compared to untreated animals, provides in vivo evidence that ezetimibe is an effective treatment for HCV in patients.

HCVcc = experiment: Secretion of infectious HCVcc, extracellular infectivity titration; type: cell-based, Hepatitis C virus (HCV); conditions: 30 μM, 24-96 hours post-treatment
Experimental: Cell supernatants were serially diluted 10-fold in cDMEM and 100 μl was used to infect, in triplicate, 4×10^3 naïve Huh7 cells per well in 96-well plates (BD Biosciences). The inoculum was incubated with cells for 24 hours at 37° C. and then overlayed with 150 μl complete DMEM containing 0.4% methylcellulose (w/v) (Fluka BioChemika, Switzerland) to give a final concentration of 0.25% methylcellulose. Seventy-two hours post-infection, medium was removed, cells were fixed with 4% paraformaldehyde (Sigma) and immunohistochemical staining for HCV E2 was performed. […] The HCV E2 glycoprotein was detected by incubation at room temperature with 1×PBS containing 0.5% (v/v) TRITON X-100 and 3% (w/v) BSA and a 1:500 dilution of the human monoclonal anti-HCV E2 antibody C1. Bound C1 was subsequently detected by a 1 hour incubation with a 1:1000 dilution of an HRP-conjugated anti-human antibody (Pierce, Rockford, Ill.) followed by a 30 minute incubation with an AEC detection substrate (BD Biosciences). […] Viral infectivity titers are expressed as FFU per milliliter of supernatant (FFU/ml), determined by the average number of E2-positive foci detected in triplicate samples at the highest HCV-positive dilution.
Huh7 cultures were inoculated with HCVcc at an MOI of 0.01 FFU cell-1. […] Infectivity titers are expressed as mean FFU/ml±SD for triplicate samples.

JFH-1 = experiment: Infectivity of intracellular virus from naringenin-treated cells; type: cell-based, Hepatitis C virus (HCV); conditions: standard cell-free infection of naïve Huh7-1 cells
Experimental: To determine the nature of the intracellular JFH-1 virion particles which are able to spread from cell-to-cell, even in the absence of secretion, the buoyant density of the accumulated, intracellular particles from naringenin-treated cells were analyzed on iodixanol gradients. It was observed that the peak of RNA from these cells was shifted towards the heavier fractions consistent with the intracellular particles in naringenin-treated cells being less lipidated. Infectivity of the intracellular virus from naringenin-treated cells was reduced by more than 95% in a standard cell-free virus infection of naïve Huh7-1 cells.

SMILES | reduction in DNV plaque formation (Dengue virus (DNV)) | steady-state intracellular HCV RNA levels (HCV [1]) | infection blocked (HCVcc^G451R) [%] | establishment of HCV infection (serum HCV RNA) (HCV [2]) | secretion of infectious HCVcc (infectivity titers) (HCVcc) | reduction of infectivity of intracellular virus (JFH-1)
O=C1[C@H](CC[C@H](O)c2ccc(F)cc2)[C@@H](c2ccc(O)cc2)N1c1ccc(F)cc1 [ezetimibe, 1-(4-fluorophenyl)-(3R)-[3-(4-fluorophenyl)-(3S)-hydroxypropyl]-(45)-(4-hydroxyphenyl)-2-azetidinone] | no significant reduction | did not reduce HCV infection | ~100 | prevents the establishment of HCV infection | did not inhibit secretion of infectious HCVcc | 
O=C1C[C@@H](c2ccc(O)cc2)Oc2cc(O)cc(O)c21 [naringenin] |  |  |  |  |  | more than 95%
